The source of these data is patent US7935714B2, “Compositions for sleeping disorders” (Bright Future Pharmaceutical Laboratories, priority 2004, dated 2011).

This test concerns male Wistar rats. Put plainly: Telemetry EEG study of NREM sleep (sleep latency and quality) in freely moving male Wistar rats. It is filed as in vivo. The note with it: for sleep latency / NREM sleep during the second hour following treatment / NREM sleep within the first hour following treatment: zolpidem. As for the experimental part: Telemetric EEG, activity and temperature monitors were surgically implanted sub-coetaneously onto the lower backs of male Wistar rats, under ketamie and xyalsine (75/10 mg/kg, i.p.) anaesthesia. A skin incision was made above the scull and the transmitter tunnelled subcutaneously from the neck to the lower back with blunted scissors. The EEG leads were placed into two 0.5 mm holes that were drilled stererotaxically 2 mm anterior to Lambda and 1 mm to the left and right of centre, so that contact was made with the durra, and fixed with quick drying glue and reinforced with dental cement. The incision was then closed with 4-0 silk suture and post operative temgesic applied for pain relief. Following a 4 week recovery and acclimatization period in individually housed ventilated cages (12 hour light/12 hour dark cycle 20-25° C.), the rats were orally treated with either test compounds, positive controls or vehicle 45-30 min prior commencement of their light cycle (sleeping period). A Latin square dosing regiment was used where each rat received each of the drugs tested in random order with 4 days clearance time between each dosing. EEG waveforms were analysed using a power spectral analysis of each 5 second epoch and scored manually into % duration of NREM sleep for each hour over a 12 hour period. […] Data were analysed using Two-way ANOVA versus vehicle treatment (*p<0.05, n=7).

[1] abbreviates: p.o., zopiclone 5 mg/kg, Compound Mixture 50 mg/kg, compared to vehicle.
[2] abbreviates: p.o., zopiclone 5 mg/kg, Compound Mixture 50 mg/kg, versus vehicle.

For the compound `Cc1ccc(-c2nc3ccc(C)cn3c2CC(=O)N(C)C)cc1` [zolpidem], where the note is “5 mg/kg p.o., compared to vehicle”, the “NREM sleep during the remainder of the sleep period” value is “failed to significantly improve NREM sleep”. Further, the sleep latency result under setting [1] is “significantly reduce sleep latency”. Besides, under setting [2], the “NREM sleep during the second hour following treatment” value is “not significantly different from vehicle treatment” and the “NREM sleep within the first hour following treatment” value is “significantly increased”.
As for `CN1CCN(C(=O)OC2c3nccnc3C(=O)N2c2ccc(Cl)cn2)CC1` (stereo not drawn) [zopiclone], the “sleep quality during the 6th hour of sleep” value (5 mg/kg p.o., versus vehicle) is “negative effect on sleep quality”. Under setting [1], the sleep latency entry is listed as “significantly reduce sleep latency”. Also, under setting [2], the “NREM sleep during the second hour following treatment” value is reported as “not significantly different from vehicle treatment”, the “NREM sleep within the first hour following treatment” value was “significantly increased” and the “NREM sleep duration during the 8th hour” value was “significantly improved”.
